Where “and” joins values, the source holds several entries; their conditions need not be identical. Equal values may be shown once.
What was measured:
coca-5HT3 = coca-5HT3 (Homo sapiens, UniProt P36544, G175K/L141G/Y210F/Y217F); assay: [^3H]ASEM displacement, membranes of HEK293 cells expressing coca-5HT3; format: binding, human α7 nAChR LBD, mouse 5HT3 IPD; conditions: for [3H]ASEM binding, normalised dose-response (DR replicates): HotNM 2.000
Method: (§1) Cells were suspended in Tris-HCl 50 mM pH 7.4 supplemented with protease inhibitor cocktail (1:100, Sigma-Aldrich). HEK293 cells were disrupted with a 6 Polytron homogenizer (Kinematica). Homogenates were centrifuged at 48,000g (50 min, 4 °C) and washed twice in the same conditions to isolate the membrane fraction. Protein was quantified using the bicinchoninic acid method (Pierce). […] Free and membrane-bound radioligands were separated by rapid filtration of 500 μl aliquots in a 96-well plate harvester (Brandel) and washed with 2 ml of ice-cold Tris-HCl buffer. Microscint-20 scintillation liquid (65 μl per well, PerkinElmer) was added to the filter plates, plates were incubated overnight at room temperature and radioactivity counts were determined in the MicroBeta2 plate counter (PerkinElmer) with an efficiency of 41%. Two-site competition curves were fitted using Prism 10 (GraphPad). Ki values were calculated using the Cheng–Prusoff equation.

coca-GlyR = biological target: T1, coca-GlyR (Homo sapiens, UniProt P23415+P36544, G175K/L141G/Y217F); assay: [^3H]ASEM displacement, membranes of HEK293 cells expressing coca-GlyR; format: binding
T1 construct: expressed in transfected cells; host or cells: HEK293 (ATCC CRL-1573), pcDNA3.1
Method: as §1

α7 nAChR = conditions: cited from earlier work
unmodified α7–5HT3 = biological target: T2, unmodified α7–5HT3 (UniProt P23979+P36544); set-up: method as in PMID 30872534; conditions: cited from earlier work
T2 construct: expressed in transfected cells; host or cells: HEK293 (ATCC CRL-1573), pcDNA3.1

unmodified α7–GlyR = biological target: T3, unmodified α7–GlyR (Homo sapiens, UniProt P23415+P36544); set-up: method as in PMID 30872534; conditions: cited from earlier work
T3 construct: expressed in transfected cells; host or cells: HEK293 (ATCC CRL-1573), pcDNA3.1

[1] = Two sites - Fit Ki, best-fit value per replicate
[2] = Two sites - Fit Ki, best-fit value, single experiment

coca-5HT3, sequence (P23979 242-489): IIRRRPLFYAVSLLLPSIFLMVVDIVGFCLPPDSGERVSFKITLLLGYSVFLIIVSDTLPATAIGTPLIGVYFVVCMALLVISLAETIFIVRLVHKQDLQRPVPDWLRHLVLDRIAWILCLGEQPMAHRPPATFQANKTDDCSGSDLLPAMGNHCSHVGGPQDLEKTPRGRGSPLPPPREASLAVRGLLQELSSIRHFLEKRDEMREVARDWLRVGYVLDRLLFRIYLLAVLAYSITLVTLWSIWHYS
coca-5HT3, sequence (P36544 23-224 L141G/G175K/Y210F/Y217F): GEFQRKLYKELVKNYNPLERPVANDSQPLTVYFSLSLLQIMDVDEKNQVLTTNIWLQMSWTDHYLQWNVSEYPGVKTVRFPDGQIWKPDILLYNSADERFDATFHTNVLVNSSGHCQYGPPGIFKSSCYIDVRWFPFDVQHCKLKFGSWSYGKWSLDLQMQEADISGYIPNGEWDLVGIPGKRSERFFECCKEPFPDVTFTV
T1 sequence (P36544+P23415 fused P36544:L141G/P36544:G175K/P36544:Y217F): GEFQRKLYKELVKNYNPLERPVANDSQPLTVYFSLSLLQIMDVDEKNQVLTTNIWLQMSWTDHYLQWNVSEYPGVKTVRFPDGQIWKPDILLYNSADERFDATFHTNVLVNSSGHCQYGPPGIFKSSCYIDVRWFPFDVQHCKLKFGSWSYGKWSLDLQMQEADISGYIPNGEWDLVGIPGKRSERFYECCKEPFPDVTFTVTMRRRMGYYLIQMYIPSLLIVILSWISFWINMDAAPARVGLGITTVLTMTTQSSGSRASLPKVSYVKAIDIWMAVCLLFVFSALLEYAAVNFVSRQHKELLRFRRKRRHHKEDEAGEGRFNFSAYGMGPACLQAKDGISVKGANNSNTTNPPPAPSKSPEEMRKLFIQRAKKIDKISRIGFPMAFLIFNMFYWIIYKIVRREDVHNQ
T3 sequence (P36544+P23415 fused): as the sequence (P36544+P23415 fused P36544:L141G/P36544:G175K/P36544:Y217F) above, with G119L, K153G, F195Y counted along it
T2 sequence (P36544+P23979 fused P36544:T225I/P36544:M226I): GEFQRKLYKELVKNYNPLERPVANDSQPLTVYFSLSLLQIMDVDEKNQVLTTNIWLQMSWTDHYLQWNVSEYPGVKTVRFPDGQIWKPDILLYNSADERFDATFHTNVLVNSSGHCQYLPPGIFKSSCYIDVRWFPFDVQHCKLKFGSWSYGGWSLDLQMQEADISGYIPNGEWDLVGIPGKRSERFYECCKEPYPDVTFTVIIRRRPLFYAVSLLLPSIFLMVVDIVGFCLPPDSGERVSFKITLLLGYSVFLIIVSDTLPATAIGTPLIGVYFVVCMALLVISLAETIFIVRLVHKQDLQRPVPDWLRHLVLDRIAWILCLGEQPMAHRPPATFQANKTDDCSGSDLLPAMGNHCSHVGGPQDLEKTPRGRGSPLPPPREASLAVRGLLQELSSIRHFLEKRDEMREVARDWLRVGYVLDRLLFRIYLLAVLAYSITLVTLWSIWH

O=S1(=O)c2cc(N3CCN4CCC3CC4)ccc2-c2cccc(F)c21 [ASEM]
binding to coca-5HT3 (coca-5HT3): biphasic manner
FractionHi MEAN (coca-5HT3; Two sites - Fit Ki, MEAN of 3 experiments): 0.4238
Bottom (coca-5HT3; [1]): -0.2261 and -1.876 and -13.02
Top (coca-5HT3; [1]): 108.2 and 99.61 and 97.94
FractionHi (coca-5HT3; Two sites - Fit Ki, best-fit value per replicate, fraction of high-affinity sites): 0.4342 and 0.3061 and 0.4229
FractionHi (coca-5HT3; [2]): 0.4739 and 0.3529 and 0.4445
Top (coca-5HT3; [2]): 103.6 and 103.2 and 103.8
FractionHi MEAN (coca-5HT3; Two sites - Fit Ki, MEAN of replicates): 0.3877
[3H]ASEM binding, normalised dose-response (DR replicates) (coca-5HT3; competitor log(M) -4): 0 and 2.042 and -2.042
[3H]ASEM binding remaining, single experiment (coca-5HT3; competitor log(M) -5): 21.992 and 15.466 and 20.212
[3H]ASEM binding, normalised dose-response (DR replicates) (coca-5HT3; competitor log(M) -5): 13.773 and 20.58
[3H]ASEM binding remaining, single experiment (coca-5HT3; competitor log(M) -5.5): 26.835 and 27.725
[3H]ASEM binding, normalised dose-response (DR replicates) (coca-5HT3; competitor log(M) -5.5): 32.147 and 34.87 and 51.889
[3H]ASEM binding remaining, single experiment (coca-5HT3; competitor log(M) -6): 38.451 and 39.34
[3H]ASEM binding, normalised dose-response (DR replicates) (coca-5HT3; competitor log(M) -6): 39.688 and 59.43 and 60.791
[3H]ASEM binding remaining, single experiment (coca-5HT3; competitor log(M) -6.5): 45.049 and 48.906 and 53.356
[3H]ASEM binding, normalised dose-response (DR replicates) (coca-5HT3; competitor log(M) -6.5): 51.256 and 70.998 and 34.237
[3H]ASEM binding remaining, single experiment (coca-5HT3; competitor log(M) -7): 68.627 and 77.823 and 60.024
[3H]ASEM binding, normalised dose-response (DR replicates) (coca-5HT3; competitor log(M) -7): 64.248 and 83.99 and 53.356
[3H]ASEM binding remaining, single experiment (coca-5HT3; competitor log(M) -8): 69.758 and 69.462 and 44.246
[3H]ASEM binding, normalised dose-response (DR replicates) (coca-5HT3; competitor log(M) -8): 67.668 and 43.16
[3H]ASEM binding remaining, single experiment (coca-5HT3; competitor log(M) -8.5): 79.055 and 76.385 and 69.859
[3H]ASEM binding, normalised dose-response (DR replicates) (coca-5HT3; competitor log(M) -8.5): 58.761 and 45.827 and 64.888
[3H]ASEM binding remaining, single experiment (coca-5HT3; competitor log(M) -9): 118.645 and 95.803 and 67.325
[3H]ASEM binding, normalised dose-response (DR replicates) (coca-5HT3; competitor log(M) -9): 68.4 and 67.719
[3H]ASEM binding remaining, single experiment (coca-5HT3; competitor log(M) -9.5): 111.297 and 122.273 and 76.589
[3H]ASEM binding, normalised dose-response (DR replicates) (coca-5HT3; competitor log(M) -9.5): 73.805 and 71.082 and 77.209
[3H]ASEM binding remaining, single experiment (coca-5HT3; competitor log(M) -10): 101.728 and 95.202 and 81.556
[3H]ASEM binding, normalised dose-response (DR replicates) (coca-5HT3; competitor log(M) -10): 78.63 and 99.734 and 90.884
[3H]ASEM binding remaining, single experiment (coca-5HT3; competitor log(M) -10.5): 92.261 and 100.567 and 96.414
[3H]ASEM binding, normalised dose-response (DR replicates) (coca-5HT3; competitor log(M) -10.5): 94.278 and 80.663 and 86.79
[3H]ASEM binding remaining, single experiment (coca-5HT3; competitor log(M) -11): 96.153 and 103.569 and 104.162
[3H]ASEM binding, normalised dose-response (DR replicates) (coca-5HT3; competitor log(M) -11): 97.033 and 84.779 and 104.521
[3H]ASEM binding remaining, single experiment (coca-5HT3; competitor log(M) -13): 102.966 and 93.474 and 103.56
[3H]ASEM binding, normalised dose-response (DR replicates) (coca-5HT3; competitor log(M) -13): 111.346 and 109.984
binding to coca-GlyR (coca-GlyR): biphasic manner

CN1[C@@H]2CC[C@H]1C[C@@H](OC(=O)c1c[nH]c3ccccc13)C2 [tropisetron]
activity at α7 nAChR (α7 nAChR): agonist
activity at chimeric channel α7–5HT3 (unmodified α7–5HT3): agonist
activity at chimeric channel α7–GlyR (unmodified α7–GlyR): agonist

Reference: publication PMC12527922, “Cocaine chemogenetics blunts drug-seeking by synthetic physiology” (Nature, 2025)
